Data published in patent US4996223A, “New organic compounds having opioid properties” (priority 1986, dated 1991).
Values after ≈ are worked out from the molar mass of the structure shown. “Also recorded” adds a separate entry of the source. Like-named read-outs stand apart in the source and are kept apart here.

Columns and labels:
[1] = system: opioid receptors of the guinea pig ileum; assay type: cell-based; settings: for inhibition of electrically induced contractions / antagonism by naloxone / opioid (opiate-like) activity in vitro: words; for antagonism by naloxone: naloxone 0.5, 5 and 50 ng/ml (eseroline) or 5 and 50 ng/ml; for enhancement of electrically induced contractions / excitatory stage: eseroline above 400 ng/ml in presence of naloxone; for evidence of cholinesterase inhibition on the ileum: inferred from enhancement of contractions; for opioid (opiate-like) activity in vitro: isolated tissue preparations; for log dose ratio (±S.D.), shift by naloxone, ileum: mean of not less than 6 determinations
Description: Sections of guinea-pig ileum were set up for transmural stimulation under a resting tension of 0.75 g in Krebs solution bubbled with 5% carbon dioxide in oxygen at 37 degrees C according to the method of Kosterlitz and Watt (1968) Contractions were elicited from stainless steel electrodes, one of which was sited in the lumen at supramaximal voltage and a frequency of 0.05 Hz. Isometric contractions were recorded on a Rikadenki recorder. Potential agonists were added directly to the bath and the contact time was until maximum inhibition had occurred. The responses of the preparation in the presence of naloxone were examined with the naloxone present in the physiological solution. Results were expressed as percent inhibition. In each experiment a log dose effect relationship was determined using at least four concentrations in the absence of antagonist, and then in the presence of one or more concentrations of naloxone.
(§1) Eseroline was dissolved in minimal 0.1N hydrophloric acid and dilutions made with water. Salts were dissolved in water.

[2] = relative to morphine; cited from earlier work
[3] = system: cholinesterase; settings: cited from earlier work
[4] = system: mice; test: animal or person; assay type: in vivo, mouse; settings: for ED50: Mus musculus, read-out: ED50 Hot Plate; for antagonism of analgesia by naloxone: analgesic tests (Hot Plate and Abdominal Constriction)
Description: (§2) Analgesic activity was assessed using two methods in mice--the Hot Plate Test and the Abdominal Constriction Test (acetic acid). The test drug was given by subcutaneous injection and the results expressed as ED50 with 95% confidence intervals.
(§3) ED50 and 95% confidence intervals.
(§4) mg/kg, subcutaneous injection.

[5] = system: opioid receptors of the mouse vas deferens; assay type: cell-based; settings: for log dose ratio (±S.D.), shift by naloxone, vas deferens: mean of not less than 6 determinations
Description: Vasa deferentia were removed and mounted in 1.2 ml tissue baths under a resting tension of 200 mg in Mg^2+ -free Krebs solution bubbled with a mixture of 95% oxygen and 5% carbon dioxide at 36 degrees C. The preparations were left for 1 hour to equilibriate. Contractions were elicited from platinum electrodes fused to the sides of the tissue bath using supramaximal voltage (usually above 100 V), a pulse width of lms and a frequency of 0.1 Hz. Isometric contractions were recorded on a Grass polygraph. As with the ileum, concentration effect relationships were determined in the absence then presence of naloxone.
as §1
The values are derived from individual comparisons of the percentage inhibition of the preparations in the presence of a concentration of naloxone and that in the same preparation in the absence of naloxone.

[6] = system: cholinesterase (guinea pig ileum as the enzyme source); test: Anticholinesterase Test (method of Ellman, Courtney et al.); assay type: biochemical; settings: concentrations up to 6.4 ug/ml where stated
Description: Anticholinesterase activity was assessed using the method of Ellman, Courtney et al., (1961) using guinea pig ileum as the enzyme source.

[7] = system: mice; test: animal or person; assay type: in vivo; settings: Mus musculus, sc, subcutaneous injection, 95% confidence intervals, read-out: ED50 Abdominal Constriction (Acetic acid)
Description: as §2, §3, §4

[8] = Naloxone 10 ng/ml (so in the source)

| SMILES | inhibition of electrically induced contractions ([1]; guinea pig ileum) | antagonism by naloxone ([1]; guinea pig ileum) | enhancement of electrically induced contractions / excitatory stage ([1]; guinea pig ileum) | evidence of cholinesterase inhibition on the ileum [1] | opioid (opiate-like) activity in vitro [1] | antagonist activity against morphine [1] | receptor selectivity / receptor population compared with morphine [1] | antagonism of analgesia by naloxone ([4]; mice) | other results |
| --- | --- | --- | --- | --- | --- | --- | --- | --- | --- |
| CN1CCC2(C)c3cc(O)ccc3N(C)C12 (single isomer, unassigned) [eseroline, reference compound] | concentration-dependent inhibition of contractions | antagonised by naloxone in a concentration-dependent manner | enhanced electrically-induced contractions of the muscle | evidence for anti-cholinesterase activity was also seen | has opiate activity | – | – | – | maximum inhibition of electrically induced contractions ([1]; guinea pig ileum): about 50%; analgesic properties [2]: approximately equipotent with morphine; anticholinesterase activity [3]: retains undesirable anticholinesterase activity |
| CN1CC[C@]23c4c5ccc(O)c4O[C@H]2[C@@H](O)C=C[C@H]3[C@H]1C5 [morphine, reference compound] | familiar inhibition of the preparation | naloxone antagonism was confirmed | – | – | – | – | – | – | times more potent than (±)-6-hydroxy-9,10-dimethyl-echiboline ([1]; guinea pig ileum, from EC50 values): 2.8 times; ED50 ([4]; sc): 3.22 mg/kg; times more potent than (±)-6-hydroxy-9,10-dimethyl-echiboline ([5]; mouse vas deferens, from EC50 values): 3.6 times |
| C=CCN1CCC23CCCCC12N(C)c1ccc(O)cc13 (racemic) [6-Hydroxy-9-methyl-10-allyl-echiboline, 1,2,3,4-tetrahydro-6-hydroxy-9-methyl-10-allyl-9a,4a-(iminoethano)-9H-carbazole] | – | antagonized by naloxone; also recorded: relative lack of potency of naloxone as an antagonist | – | – | possesses opioid agonist activity in vitro | no antagonist activity against morphine | interaction with a different receptor population than that with which morphine interacts; also recorded: likely to be the "kappa" receptor | – | IC50, inhibition of contractions of the ileum [1]: 0.3 µg/mL; potency relative to morphine [1]: about ten times less potent than morphine |
| C=CCN1CC[C@]23c4c5ccc(O)c4O[C@H]2C(=O)CC[C@@]3(O)[C@H]1C5 [Naloxone, naloxone, reference compound] | – | – | – | – | – | – | – | effective antagonist | – |
| CN1CCC23CCCCC12N(C)c1ccc(O)cc13 (racemic) [6-hydroxy-9,10-dimethyl-echiboline, 1,2,3,4-tetrahydro-6-hydroxy-9,10-dimethyl-9a,4a-(iminoethano)-9H-carbazole] | similarly inhibited the electrically-induced contractions | antagonised by naloxone in a concentration-dependent manner | at no stage was an excitatory stage seen; also recorded: No enhancement of contractions was seen | no evidence of cholinesterase inhibition | possessed opiate-like activity | – | differs from that of morphine | antagonised by naloxone | anti-cholinesterase inhibitory activity [6]: no evidence of cholinesterase inhibitory activity; anti-cholinesterase inhibitory activity ([6]; listed as echiboline derivative): no detectable anti-cholinesterase inhibitory activity; log dose ratio (±S.D.), shift by naloxone, ileum ([1]; Naloxone 5 ng/ml): 0.91 (+0.27); log dose ratio (±S.D.), shift by naloxone, ileum [1, 8]: 1.54 (+0.22); EC50 (±SD) Guinea-pig ileum ([1]; Table 1, mean of not less than 12 determinations, S.D. range on next line): 0.0335 µg/mL (≈ 0.13 µM); inhibition, some individual values ([1]; guinea pig ileum, individual values): over 90%; ED50 [7]: 0.23 mg/kg; ED50 ([4]; sc, mice, subcutaneous injection, 95% confidence intervals): 1.71 mg/kg; potency relative to morphine in mice ([4]; mouse, in vivo, sc): somewhat greater than that predicted from the in vitro tests; antagonism by naloxone compared with morphine [5]: some ten times less effective as an antagonist than against morphine; log dose ratio (±S.D.), shift by naloxone, vas deferens [5, 8]: 0.87 (+0.19); log dose ratio (±S.D.), shift by naloxone, vas deferens ([5]; Naloxone 500 ng/ml): 1.66 (+0.13) |
| CN1c2ccc(O)cc2C23CCCCC12N(CC1CC1)CC3 (racemic) [1,2,3,4-tetrahydro-6-hydroxy-9-methyl-10-cyclopropylmethyl-9a,4a-(iminoethano)-9H-carbazole] | inhibited the contractions of the ileum, but was of weaker potency | Naloxone had little antagonist activity | – | – | – | no detectable antagonist activity against morphine | – | – | – |
